The NIST ThermoML archive (doi:10.1016/j.jct.2015.09.004)

Experiments:
[1] = for vapor or sublimation pressure: Closed cell (Static) method; for Normal melting temperature: DTA
[2] = Molar enthalpy of transition or fusion; details: Crystal; DSC

CC(=O)c1ccc(I)cc1 [para-iodoacetophenone]
[1]
Details | vapor or sublimation pressure [kPa]
313.07 K, Crystal | 0.00086
315.1 K, Crystal | 0.00108
317.07 K, Crystal | 0.00134
319.04 K, Crystal | 0.00166
321.02 K, Crystal | 0.00205
323.02 K, Crystal | 0.00253
325.06 K, Crystal | 0.00313
326.98 K, Crystal | 0.00382
329.06 K, Crystal | 0.00477
330.99 K, Crystal | 0.00578
333.01 K, Crystal | 0.0071
334.95 K, Crystal | 0.00856
336.96 K, Crystal | 0.01043
338.87 K, Crystal | 0.01256
340.91 K, Crystal | 0.01528
342.83 K, Crystal | 0.01834
344.76 K, Crystal | 0.02192
346.73 K, Crystal | 0.02634
348.73 K, Crystal | 0.03176
348.73 K, Metastable liquid | 0.03831
350.7 K, Metastable liquid | 0.04337
350.71 K, Crystal | 0.03795
352.69 K, Metastable liquid | 0.04939
352.75 K, Crystal | 0.04537
354.68 K, Metastable liquid | 0.05596
356.62 K, Metastable liquid | 0.06332
358.92 K, Liquid | 0.07293
360.65 K, Liquid | 0.08166
362.51 K, Liquid | 0.09128
364.59 K, Liquid | 0.1048
366.58 K, Liquid | 0.1171
368.51 K, Liquid | 0.131
370.52 K, Liquid | 0.1458
372.41 K, Liquid | 0.1634
374.48 K, Liquid | 0.1829
376.36 K, Liquid | 0.2045
378.41 K, Liquid | 0.2281
380.39 K, Liquid | 0.2553
382.37 K, Liquid | 0.2831
384.3 K, Liquid | 0.3146
386.31 K, Liquid | 0.3478
388.27 K, Liquid | 0.3882
389.83 K, Liquid | 0.42
392.22 K, Liquid | 0.4723
394.17 K, Liquid | 0.5188
396.15 K, Liquid | 0.5726
398.12 K, Liquid | 0.6279
399.98 K, Liquid | 0.6883
402.04 K, Liquid | 0.7599

Details | Normal melting temperature [°C]
[1], Crystal | 84.5

Details | Molar enthalpy of transition or fusion [kcal/mol]
[2] | 5.62

CC(=O)c1ccc(Br)cc1 [4'-bromoacetophenone]
[1]
Details | vapor or sublimation pressure [kPa]
295.3 K, Crystal | 0.00115
297.26 K, Crystal | 0.00142
299.2 K, Crystal | 0.00175
301.22 K, Crystal | 0.00219
303.17 K, Crystal | 0.00269
305.12 K, Crystal | 0.00341
305.14 K, Metastable liquid | 0.00501
307.11 K, Crystal | 0.00418
307.13 K, Metastable liquid | 0.00591
309.13 K, Crystal | 0.00512
309.14 K, Metastable liquid | 0.00699
311.05 K, Crystal | 0.00632
311.08 K, Metastable liquid | 0.0082
312.97 K, Metastable liquid | 0.00953
313.08 K, Crystal | 0.00777
315.05 K, Crystal | 0.00949
315.06 K, Metastable liquid | 0.01125
317.04 K, Crystal | 0.01155
317.08 K, Metastable liquid | 0.01318
319.04 K, Crystal | 0.0141
319.06 K, Metastable liquid | 0.01542
321.03 K, Metastable liquid | 0.01778
322.97 K, Metastable liquid | 0.02065
324.98 K, Metastable liquid | 0.02389
327.07 K, Liquid | 0.02782
328.92 K, Liquid | 0.03179
331.01 K, Liquid | 0.03679
333 K, Liquid | 0.04238
334.94 K, Liquid | 0.04849
336.95 K, Liquid | 0.05561
338.92 K, Liquid | 0.06344
340.91 K, Liquid | 0.07228
342.92 K, Liquid | 0.08249
344.85 K, Liquid | 0.09385
346.83 K, Liquid | 0.1056
348.79 K, Liquid | 0.1197
350.66 K, Liquid | 0.1346
352.73 K, Liquid | 0.1529
354.58 K, Liquid | 0.1698
356.66 K, Liquid | 0.1927
358.51 K, Liquid | 0.2158
360.62 K, Liquid | 0.2427
362.46 K, Liquid | 0.27
364.54 K, Liquid | 0.3031
366.57 K, Liquid | 0.3388
368.54 K, Liquid | 0.3774
370.53 K, Liquid | 0.4201
372.5 K, Liquid | 0.4659
374.46 K, Liquid | 0.5142
376.43 K, Liquid | 0.5712
378.39 K, Liquid | 0.6312

Details | Normal melting temperature [°C]
[1], Crystal | 51.1

Details | Molar enthalpy of transition or fusion [kcal/mol]
[2] | 4.57

CC(=O)c1ccc(Cl)cc1 [4'-chloroacetophenone]
[1]
Details | vapor or sublimation pressure [kPa]
271.56 K, Metastable liquid | 0.00065
273.59 K, Metastable liquid | 0.00081
275.52 K, Metastable liquid | 0.00098
277.47 K, Metastable liquid | 0.00118
279.48 K, Metastable liquid | 0.00144
281.51 K, Metastable liquid | 0.00176
283.42 K, Metastable liquid | 0.0021
285.45 K, Metastable liquid | 0.00256
287.39 K, Metastable liquid | 0.00305
289.34 K, Metastable liquid | 0.00364
291.32 K, Liquid | 0.00437
293.32 K, Liquid | 0.00519
295.29 K, Liquid | 0.00616
297.26 K, Liquid | 0.00729
299.24 K, Liquid | 0.00863
301.19 K, Liquid | 0.01012
303.21 K, Liquid | 0.01198
305.16 K, Liquid | 0.01396
307.18 K, Liquid | 0.01629
309.12 K, Liquid | 0.01902
311.1 K, Liquid | 0.02236
313.1 K, Liquid | 0.02596
315.07 K, Liquid | 0.03015
317.04 K, Liquid | 0.03486
319.07 K, Liquid | 0.04049
321 K, Liquid | 0.04613
323.09 K, Liquid | 0.05334
325.1 K, Liquid | 0.0612
327.08 K, Liquid | 0.06999
329.05 K, Liquid | 0.07991
331.04 K, Liquid | 0.09133
333 K, Liquid | 0.1037
334.98 K, Liquid | 0.1174

Details | Normal melting temperature [°C]
[1], Crystal | 17.2

Details | Molar enthalpy of transition or fusion [kcal/mol]
[2] | 3.66

CC(=O)c1ccc(F)cc1 [1-(4-fluorophenyl)ethanone]
[1]
Details | vapor or sublimation pressure [kPa]
255.13 K, Metastable liquid | 0.00086
256.87 K, Metastable liquid | 0.00104
258.79 K, Metastable liquid | 0.00128
260.76 K, Metastable liquid | 0.00157
262.72 K, Metastable liquid | 0.00193
264.7 K, Metastable liquid | 0.00233
266.63 K, Metastable liquid | 0.00285
268.62 K, Metastable liquid | 0.00348
270.62 K, Liquid | 0.00417
272.54 K, Liquid | 0.00501
274.51 K, Liquid | 0.00603
276.49 K, Liquid | 0.00725
278.49 K, Liquid | 0.00865
280.5 K, Liquid | 0.01035
282.42 K, Liquid | 0.01227
284.44 K, Liquid | 0.01455
286.42 K, Liquid | 0.01723
288.39 K, Liquid | 0.02022
290.38 K, Liquid | 0.02379
292.34 K, Liquid | 0.02795
294.31 K, Liquid | 0.03279
296.34 K, Liquid | 0.03807
298.27 K, Liquid | 0.04465
300.3 K, Liquid | 0.05171
302.24 K, Liquid | 0.06005
304.2 K, Liquid | 0.06895
306.15 K, Liquid | 0.07985
308.16 K, Liquid | 0.09146
310.15 K, Liquid | 0.1056

Details | Normal melting temperature [°C]
[1], Crystal | -4

Details | Molar enthalpy of transition or fusion [kcal/mol]
[2] | 3.39
